Reference: patent US10081609B2, “Compounds for inducing proliferation and differentiation of cells, and methods of use thereof” (The Broad Institute, Inc., priority 2013, dated 2018)
Values after ≈ are worked out from the molar mass of the structure shown. Read-outs that look alike come from different tables or passages of the source.

Legend:
human hepatocytes = assay: CYP450 induction control in human hepatocytes; format: cell-based; conditions: 250 μM
Description: To confirm the staining results, secreted levels of albumin and AFP via ELISA, and CYP450 activities through isoenzyme-specific probes that are either fluorescent or luminescent were measured. ELISA results verified both an increase in albumin secretion and a decrease in AFP secretion by treated iHeps (FIG. 4D bottom). CYP3A4 activity increased by 16 and 45 times upon treatment with FH1 and FPH2, respectively. […] Induction was considered as a possible explanation for these elevations in CYP450 activity. However, this was unlikely based on the following experiments. […] Since a period of at least 48 hrs separated compound treatment and the measurement of CYP450 activity, the iHeps were expected to have recovered from any general elevations in CYP450 activity.

[1] = test system: human iPS-derived hepatocyte-like cells (iHeps); assay: In vitro maturation of iHeps: ELISA of albumin and AFP; format: cell-based; conditions: iHeps treated for 9 days
Description: The in vitro maturation effects of selected compounds of the invention on human iPS-derived hepatocyte-like cells (iHeps) were evaluated. Human iPS cells were differentiated into iHeps and treated with selected compounds of the invention for 9 days. Maturity of treated iHeps was evaluated through ELISA quantification of mature (albumin) and immature (AFP) markers. Results are illustrated in FIG. 19.

Plasma stability - Human = format: in vitro ADME
Description: (§1) Selected compounds of the invention were evaluated for physico-chemical properties, including solubility, microsomal stability, protein binding and plasma stability (Table 2).
(§2) Selected compounds of the invention were evaluated for physico-chemical properties, including solubility, microsomal stability, protein binding and plasma stability (Table 3).

[2] = Microsomal stability - Human; format: in vitro ADME; conditions: for Microsomal stability No NADPH: non-enzymatic microsomal mechanisms only; for Microsomal stability Average: enzymatic and non-enzymatic microsomal mechanisms
Description: as §1, §2

iHeps [3] = assay: Cytochrome P450 activity in treated iHeps; format: cell-based; conditions: iHeps treated for 9 days
Excerpt: iPS Cells were differentiated into iHeps, treated with selected compounds of the invention for 9 days, then assayed for CYP functions. The general CYP activity of the iHeps treated with compounds of the invention were elevated (FIG. 20A).

[4] = test system: human primary hepatocytes; assay: Expansion of compound-treated human primary hepatocytes (cell counts, Ki67 staining); format: cell-based; conditions: for proliferation of hepatocytes: FIG. 11A
Description: The metabolic phenotype of the treated hepatocytes was assessed for canalicular transport. […] Gene expression profiling confirmed that there was no significant differences between FPH-treated and untreated hepatocytes (FIG. 11D).
The ability of compounds 201-212, 215, 217 and 244-258 to expand human primary hepatocytes in vitro was also tested.

Protein binding - Human = format: in vitro ADME
Description: as §1, §2

[5] = Solubility in PBS with 1% DMSO; format: physicochemical; conditions: aqueous buffer, kinetic from dmso stock
Description: as §1, §2

iHeps [6] = assay: Differentiation and maturation of iHeps (albumin/AFP ELISA, staining, CYP3A4 activity); format: cell-based, human
Description: Undifferentiated iPS cells were cultured on Matrigel, supported by primary mouse embryonic fibroblasts. Once confluent, iPS cells were transitioned to differentiation media, with sequential addition of growth factors (Activin A, BMP-4, bFGF, HGF, and OSM) to guide differentiation, first into endoderm, then into hepatic progenitor cells and finally into iHeps. Compound treatment started on day 21 post initiation of differentiation and acted over a period of 9 days.
Consistent with the literature, untreated cultures had islands that double stain for albumin and the fetal marker AFP, with very little presence of the mature marker […].
The ability of compounds 201-212, 217 and 244-258 to affect the differentiation of iHeps was also tested.

Compound | experimental range of effective concentrations, albumin (mature marker) [1] [µM] | Plasma stability Average (Plasma stability - Human) [% remaining] | Microsomal stability Rep1 [2] [% remaining] | Microsomal stability Rep2 [2] [% remaining] | Microsomal stability No NADPH [2] [% remaining] | Microsomal stability Average [2] [% remaining] | experimental range of effective concentrations, CYP2A6 (iHeps [3]) [µM] | experimental range of effective concentrations, CYP3A4 (iHeps [3]) [µM] | experimental range of effective concentrations, CYP3A7 (iHeps [3]) [µM] | experimental range of effective concentrations, general CYP activity (general BFC) (iHeps [3]) [µM] | proliferation of hepatocytes [4] | Protein binding Average (Protein binding - Human) [% bound] | Protein binding Rep1 (Protein binding - Human) [% bound] | Protein binding Rep2 (Protein binding - Human) [% bound] | solubility ([5]; read-out: Solubility Average) [µM] | solubility ([5]; read-out: Solubility Rep1) [µM] | solubility ([5]; read-out: Solubility Rep2) [µM] | solubility ([5]; read-out: Solubility Rep3) [µM] | further results
O=c1cc(-c2ccccc2)oc2ccc3ccccc3c12 [BNF, β-naphthoflavone] | – | – | – | – | – | – | – | – | – | – | – | – | – | – | – | – | – | – | CYP450 activity (human hepatocytes): elevated
C[C@H](CO)N1C[C@H](C)[C@H](CN(C)C(=O)Nc2ccc(F)cc2)Oc2ncc(C#Cc3ccc(F)cc3)cc2C1=O [Compound 107, 3-(4-fluorophenyl)-1-(((2R,3S)-8-((4-fluorophenyl)ethynyl)-5-((R)-1-hydroxypropan-2-yl)-3-methyl-6-oxo-3,4,5,6-tetrahydro-2H-pyrido[2,3-b][1,5]oxazocin-2-yl)methyl)-1-methylurea] | 5 to 20 | 87.1 | 52.4 | 59.3 | 94.4 | 55.8 | 10 to 26.7 | 6.7 to 20 | 10 to 13.3 | 13.3 | induced proliferation | 99.5 | 99.4 | 99.5 | 41 (≈ 22.5 µg/mL) | 33 (≈ 18.1 µg/mL) | 47 (≈ 25.8 µg/mL) | 41 (≈ 22.5 µg/mL) | Ki67 staining co-localized with Hoechst and human albumin stains [4]: increased
C[C@H]1CN([C@@H](C)CO)C(=O)CCCn2cc(nn2)CO[C@H]1CN(C)C(=O)C1CC1 [Compound 108, N-(((4R,5S,Z)-7-((S)-1-hydroxypropan-2-yl)-5-methyl-8-oxo-11H-3-oxa-7-aza-1(4,1)-triazolacycloundecaphane-4-yl)methyl)-N-methylcyclopropanecarboxamide] | 5 to 13.3 | 104.2 | 99.4 | 95.3 | 102.3 | 97.4 | 10 to 20 | 6.7 to 13.3 | 6.7 to 10 | 6.7 to 13.3 | induced proliferation | 12.0 | 11.8 | 12.1 | > 100 | > 100 | > 100 | > 100 | hepatocyte phenotype of treated iHeps (iHeps [6]): more mature hepatocyte phenotypes; AFP secretion (ELISA) (iHeps [6]; treatment from day 21, 9 days): decreased; albumin secretion (ELISA) (iHeps [6]; treatment from day 21, 9 days): increased
